Assay results published in patent publication US12318370B2, “Processes for preparing solid state forms” (Varda Space Industries, Inc., priority 2022, dated 2025).

Experiments:
Type in all cases: physicochemical
[1] = Temperature and humidity stress test, 40° C./75% RH, XRPD; details: for Change of solid form under stress, in words: 40° C. and 75% RH, XRPD at 30, 60 and 96 days; for Solid form after stress test / Time at which conversion to Form I was detected: 40° C./75% RH; for Solid form after stress test: XRPD
Description: XRPD was measured at 30, 60, and 96 days (FIG. 15).

Manual grinding, XRPD = details: mortar and pestle, five cycles of 2 minutes (10 minutes total)
[2] = Compression at 700 lbs, XRPD; details: XRPD before and after, listed as ritonavir Form III
[3] = Longer-term stability at ambient conditions, Raman; details: 5 weeks and up to 23 weeks
Description: Additionally, a longer-term stability study was performed.

[4] = Dynamic vapor sorption (DVS); details: 5% to 95% RH
Source text: No hysteresis was observed. DVS isotherms were characterized using a VTI SGA-100 Vapor Sorption Analyzer. The sample was not dried prior to analysis. Sorption and desorption isotherms were collected over a range from 5% to 95% RH at 10% RH increments under a dry air purge. The equilibrium criterion used for analysis was less than 0.0100%^0/weight change in five minutes with a maximum equilibration time of three hours and a 2-minute data logging interval. Data were not corrected for the initial moisture content of the sample.

[5] = Short-term thermal stability, Raman microscopy; details: sequentially 15 minutes at 50° C., 70° C. and 90° C., Raman after each
Description: Short-term thermal stability experiments were conducted by holding the material from example 1f sequentially for 15 minutes at 50° C., 15 minutes at 70° C., and 15 minutes at 90° C. The sample was analyzed by Raman microscopy after each temperature exposure. […] FIG. 10 compares the short-term thermal stability results to the reference spectra from FIG. 9.

| Change of solid form under stress, in words [1] | Solid form after stress test ([1]; 30 days) | Solid form after stress test ([1]; 60 days) | Solid form after stress test ([1]; 96 days) | Time at which conversion to Form I was detected ([1]; listed as amorphous ritonavir) | Solid form after manual grinding (Manual grinding, XRPD; listed as Amorphous material) | Solid form after manual grinding (Manual grinding, XRPD) | Solid form after stress test ([1]; 96 days, listed as ritonavir Form III) | Time at which conversion to Form I was detected ([1]; listed as Form III ritonavir) | Time at which conversion to Form I was detected ([1]; listed as ritonavir Form III) | Change of solid form after compression [2] | Solid form after storage at ambient conditions [3] | Hygroscopicity [4] | Solid form after manual grinding (Manual grinding, XRPD; listed as ritonavir Form III) | Solid form after short-term thermal exposure [5] | SMILES |
| --- | --- | --- | --- | --- | --- | --- | --- | --- | --- | --- | --- | --- | --- | --- | --- |
| No change | Form I | Form I | Form I | ≤ 30 days | remained unchanged | – | – | – | – | – | – | – | – | – | CC(C)c1nc(CN(C)C(=O)N[C@H](C(=O)N[C@@H](Cc2ccccc2)C[C@H](O)[C@H](Cc2ccccc2)NC(=O)OCc2cncs2)C(C)C)cs1 (single isomer, unassigned) [Amorphous, 10-hydroxy-2-methyl-5-(1-methylethyl)-1-[2-(1-methylethyl)-4-thiazolyl]-3,6-dioxo-8,11-bis(phenylmethyl)-2,4,7,12-tetraazatridecan-13-oic acid, 5-thiazolylmethyl ester, [SS-(5R*,8R*,10R*,1R*)]] |
| No change | Form I | Form I | Form I | – | – | Mixture of amorphous and Form I | – | – | – | – | – | – | – | – | CC(C)c1nc(CN(C)C(=O)N[C@H](C(=O)N[C@@H](Cc2ccccc2)C[C@H](O)[C@H](Cc2ccccc2)NC(=O)OCc2cncs2)C(C)C)cs1 (single isomer, unassigned) [Form I, 10-hydroxy-2-methyl-5-(1-methylethyl)-1-[2-(1-methylethyl)-4-thiazolyl]-3,6-dioxo-8,11-bis(phenylmethyl)-2,4,7,12-tetraazatridecan-13-oic acid, 5-thiazolylmethyl ester, [SS-(5R*,8R*,10R*,1R*)]] |
| – | – | – | – | – | – | mixture of amorphous and Form II | – | – | – | – | – | – | – | – | CC(C)c1nc(CN(C)C(=O)N[C@H](C(=O)N[C@@H](Cc2ccccc2)C[C@H](O)[C@H](Cc2ccccc2)NC(=O)OCc2cncs2)C(C)C)cs1 (single isomer, unassigned) [Form II, 10-hydroxy-2-methyl-5-(1-methylethyl)-1-[2-(1-methylethyl)-4-thiazolyl]-3,6-dioxo-8,11-bis(phenylmethyl)-2,4,7,12-tetraazatridecan-13-oic acid, 5-thiazolylmethyl ester, [SS-(5R*,8R*,10R*,1R*)]] |
| – | Form III | Form III + Form I | Form III + Form I | – | – | – | presence of Form I peaks | 60 days | 60 days | no change | remained unchanged | not hygroscopic | amorphous with traces of Form III | remained as Form III ritonavir | CC(C)c1nc(CN(C)C(=O)N[C@H](C(=O)N[C@@H](Cc2ccccc2)C[C@H](O)[C@H](Cc2ccccc2)NC(=O)OCc2cncs2)C(C)C)cs1 (single isomer, unassigned) [Form III, 10-hydroxy-2-methyl-5-(1-methylethyl)-1-[2-(1-methylethyl)-4-thiazolyl]-3,6-dioxo-8,11-bis(phenylmethyl)-2,4,7,12-tetraazatridecan-13-oic acid, 5-thiazolylmethyl ester, [SS-(5R*,8R*,10R*,1R*)]] |
